Data from patent US20160355530A1, “HEPATITIS C INHIBITORS AND USES THEREOF” (AbbVie Inc., priority 2010, published 2016).
Where two headings read alike, the source gives them in different places.

Legend:
[1] = system: HCV 1a-H77 subgenomic replicon; assay: microbe, parasite or virus in culture; format: cell-based, HCV genotype 1a; details: Hepatitis C virus, stable replicon
[2] = system: chimeric replicon with genotype 3a NS5B; assay: microbe, parasite or virus in culture; format: cell-based, HCV genotype 3a; details: Hepatitis C virus, read-out: 3a chimera 5% FBS EC50
[3] = system: chimeric replicon with genotype 4a NS5B; assay: microbe, parasite or virus in culture; format: cell-based, HCV genotype 4a; details: Hepatitis C virus, read-out: 4a chimera 5% FBS EC50
[4] = molecular target: T1, HCV NS5B polymerase 1a-H77-C316Y (Hepatitis C virus genotype 1a, UniProt P27958, C2736Y); assay: biochemical; set-up: species or system HCV genotype 1a
T1 construct: six-histidine tag; made in house; host or cells: E. coli
How it was run: (§1)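 E. coli-expressed NS5B (residues 1-570, His-tagged) transcribed a 2.1 kb HCV 1b negative-strand 3′-end RNA template (5 nM) with 20 μM CTP, 20 μM ATP and 0.284 μM [3H]UTP for 3 h at 30° C. Spermine-precipitated RNA was filter-captured and counted by scintillation; IC50 from nonlinear regression.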

[5] = system: HCV NS5B polymerase 1a-H77-C316Y; assay: biochemical; set-up: species or system HCV genotype 1a; details: ratio of enzyme IC50s, 1a H77-C316Y / 1a H77
How it was run: as §1

[6] = molecular target: T2, HCV NS5B polymerase 1a-H77 (Hepatitis C virus genotype 1a, UniProt P27958); assay: biochemical; set-up: species or system HCV genotype 1a; details: enzyme, strain 1a H77; read-out: HCV Polymerase Strain 1a H77 IC50
T2 construct: six-histidine tag; made in house; host or cells: E. coli
How it was run: as §1

[7] = system: HCV 1a-H77 transient subgenomic replicon in Huh-7 derived cell line; assay: microbe, parasite or virus in culture; format: cell-based, HCV genotype 1a; details: Hepatitis C virus, Huh-7; transient replicon, 5% FBS; read-out: Transient Replicon 1a H77 5% FBS EC50
How it was run: (§2)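 Subgenomic replicon RNA (no Neo gene) electroporated into Huh-7-derived cells, plated at 5×10^3 cells/well; a 4 h plate gauged transfection efficiency. Cells exposed to 3-fold compound dilutions (0.5% DMSO) for 4 days at 37° C, then lysed for luciferase readout; EC50 calculated.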

[8] = system: HCV 1a-H77-C316Y transient subgenomic replicon in Huh-7 derived cell line; assay: microbe, parasite or virus in culture; format: cell-based, HCV genotype 1a; details: for EC50: Hepatitis C virus, Huh-7, read-out: Transient Replicon 1a H77-C316Y 5% FBS EC50; for Transient Replicon Fold Resistance C316Y/1a: ratio of transient replicon EC50s, C316Y / 1a H77
How it was run: as §2

[9] = molecular target: T3, HCV NS5B polymerase 1b Rice (Hepatitis C virus genotype 1b, UniProt Q9WMX2); assay: HCV NS5B polymerase enzymatic inhibition assay, strain 1b Rice; format: biochemical, HCV genotype 1b; details: enzyme
T3 construct: six-histidine tag; made in house; host or cells: E. coli
Protocol: Purified HCV NS5B polymerase enzymes were used for polymerase inhibition assays. All recombinant HCV polymerases contained the first 570 amino acids of the 591 amino acid native protein sequence and a six-histidine tag at the N-terminus or C-terminus to facilitate purification by affinity chromatography. The DNA nucleotide sequence for the HCV polymerase 1b BK strain was codon optimized for expression in E. coli. A synthetic gene was prepared from a series of overlapping oligonucleotides that were filled in using a DNA polymerase and amplified by PCR. The patient isolate HCV polymerases were cloned by RT-PCR methods using HCV RNA extracted from the serum of infected subjects obtained from ProMedDx and BioCollections (genotypes 2a, 2b, 3a, and 4a). Laboratory strains were cloned from plasmid DNA (1a-H77 or 1a-H77-C316Y) or from existing replicon cells (1b Rice). In all cases the amplified DNA was cloned into a protein expression vector (typically a pET vector from Novagen) and then multiple clones were sequenced to identify one whose NS5B sequence agreed with the population sequence. This sequence-confirmed clone was then transfected into E. coli for protein expression and purification. E. coli cultures were grown to a maximum optical density (OD) of 2-3 and then induced with 0.4 mM isopropyl beta-D-thiogalactopyranoside (IPTG) and grown for 20 hours at 20° C.
Proteins were purified using nickel affinity chromatography, and additional column steps were added including, ion exchange, size exclusion, hydrophobic ion, and poly-U affinity chromatography, as needed, depending on the sample being purified. The template RNA used in the polymerase enzymatic assay was a 2.1 kb construct that corresponds to the 3′-end of an HCV genotype 1b negative strand RNA.
The reaction was initiated by the addition of 20 μM CTP, 20 μM ATP, 0.284 μM (0.5 μCi) of 5,6-[^3H] UTP, 5 nM template RNA and 0.1 U/μL RNase inhibitor (RNasin, Promega), and allowed to proceed for three hours at 30° C. The final reaction volume was 50 μL. The reaction was terminated by the addition of 50 uL of 4 mM spermine in 10 mM Tris-HCl, pH 7.5, 1 mM EDTA. The quenched reaction was allowed to incubate for at least 15 minutes at room temperature, and then the precipitated RNA was captured by filtration through a glass fiber filter (GF/B, Millipore) in a 96 well format. The filter plate was washed five times with 200 μL of 2 mM spermine, 10 mM Tris-HCl, pH 8.0, 1 mM EDTA, and two times with ethanol. After drying thoroughly in air, 30 μL of Microscint-20 scintillation cocktail (Perkin Elmer) was added to each well, and the retained cpm were determined by scintillation counting. IC50 values were determined by nonlinear regression.
% Inhibition=100*[[I]/([I]+[IC50])] equation 1
V=kcat[S]/2(Km+[S])*(sqrt((IC50+I−E)̂2+(4*IC50*E))−(IC50+I−E)) equation 2

[10] = system: HCV 1a-H77 C316Y mutant subgenomic replicon; assay: Stable replicon cell culture assay (luciferase), 1a-H77-C316Y mutant; format: cell-based, HCV genotype 1a; details: for EC50: Hepatitis C virus, read-out: Stable Replicon 1a H77-C316Y 5% FBS EC50; for Stable Replicon Fold Resistance C316Y/1a: ratio of stable replicon EC50s, C316Y / 1a H77
[11] = 5% FBS, absence of human plasma, read-out: Stable Replicon 1a H77 5% FBS EC50
[12] = strain 1a H77, 5% FBS + 40% human plasma, read-out: 1a H77 5% FBS + 40% Human Plasma EC50
[13] = strain 1a H77, 5% FBS, no human plasma, read-out: 1a H77 5% FBS EC50
[14] = strain 1a H77, 5% FBS, read-out: 1a H77 5% FBS EC50

T2 sequence (P27958 2421-2990): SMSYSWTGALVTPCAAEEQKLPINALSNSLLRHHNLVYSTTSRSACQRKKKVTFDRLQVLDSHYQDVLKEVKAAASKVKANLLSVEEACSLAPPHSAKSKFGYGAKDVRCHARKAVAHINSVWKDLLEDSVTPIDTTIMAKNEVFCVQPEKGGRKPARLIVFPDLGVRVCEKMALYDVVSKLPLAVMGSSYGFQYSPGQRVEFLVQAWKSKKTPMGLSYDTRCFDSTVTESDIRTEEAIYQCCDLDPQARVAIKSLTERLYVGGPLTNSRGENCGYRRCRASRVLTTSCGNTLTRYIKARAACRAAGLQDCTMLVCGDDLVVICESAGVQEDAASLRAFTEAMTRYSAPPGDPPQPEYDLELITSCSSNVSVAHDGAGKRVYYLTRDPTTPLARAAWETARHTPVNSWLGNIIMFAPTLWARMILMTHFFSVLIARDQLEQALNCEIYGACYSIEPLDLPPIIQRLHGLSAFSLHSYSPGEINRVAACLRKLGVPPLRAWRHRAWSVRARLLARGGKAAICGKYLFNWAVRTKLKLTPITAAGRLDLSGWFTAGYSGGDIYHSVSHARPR
T1 sequence (P27958 2421-2990 C2736Y): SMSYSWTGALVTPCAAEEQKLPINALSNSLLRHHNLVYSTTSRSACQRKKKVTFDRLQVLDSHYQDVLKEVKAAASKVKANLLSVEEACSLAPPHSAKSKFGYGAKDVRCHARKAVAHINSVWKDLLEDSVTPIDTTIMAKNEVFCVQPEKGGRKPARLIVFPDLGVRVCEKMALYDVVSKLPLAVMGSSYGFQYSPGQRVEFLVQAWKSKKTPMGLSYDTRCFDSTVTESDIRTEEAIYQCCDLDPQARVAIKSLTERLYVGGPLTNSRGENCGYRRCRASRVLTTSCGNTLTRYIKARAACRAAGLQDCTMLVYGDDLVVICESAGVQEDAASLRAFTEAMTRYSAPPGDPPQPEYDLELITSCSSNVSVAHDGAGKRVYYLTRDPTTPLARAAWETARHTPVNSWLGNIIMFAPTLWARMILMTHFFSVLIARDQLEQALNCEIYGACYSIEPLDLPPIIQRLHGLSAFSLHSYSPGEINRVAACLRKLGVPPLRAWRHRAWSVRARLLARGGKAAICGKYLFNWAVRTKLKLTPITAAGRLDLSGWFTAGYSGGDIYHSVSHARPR

Compound | EC50 [1, 11] | EC50 [1, 12] | EC50 [1, 13] | EC50 [1, 14] | EC50 [2] | EC50 [3] | IC50 [4] | C316Y/1a Fold Resistance [5] | IC50 [6] | EC50 [7] | EC50 [8] | Transient Replicon Fold Resistance C316Y/1a [8] | IC50 [9] | EC50 [10] | Stable Replicon Fold Resistance C316Y/1a [10]
CS(=O)(=O)N(CCO)c1cc2oc(-c3ccc(F)cc3)c(-c3ncc[nH]3)c2cc1C1CC1 [Example 109, N-[5-cyclopropyl-2-(4-fluorophenyl)-3-(1H-imidazol-2-yl)-1-benzofuran-6-yl]-N-(2-hydroxyethyl)methanesulfonamide] | 19.8 nM | 420 nM | 19.8 nM | 19.8 nM | 6.8 nM | 166 nM | 536 nM | 90 fold | 5.9 nM | 38 nM | 1300 nM | 34 fold | 16.9 nM | 467 nM | 23.6 fold
CS(=O)(=O)N(CCO)c1cc2oc(-c3ccc(F)cc3)c(C3=NOCCN3)c2cc1C1CC1 [Example 136, N-[5-cyclopropyl-3-(5,6-dihydro-4H-1,2,4-oxadiazin-3-yl)-2-(4-fluorophenyl)-1-benzofuran-6-yl]-N-(2-hydroxyethyl)methanesulfonamide] | 26.6 nM | 347 nM | 26.6 nM | 26.6 nM | 42 nM | 291 nM | 256 nM | 40 fold | 6.4 nM | 32.4 nM | 679 nM | 21 fold | 57 nM | 561 nM | 42.0 fold
CCCC/C=C/c1ccc(-c2oc3cc(N(CCCCS(C)(=O)=O)S(C)(=O)=O)c(C4CC4)cc3c2-c2ncc[nH]2)cc1 [Example 168, N-[5-cyclopropyl-2-{4-[(1E)-hex-1-en-1-yl]phenyl}-3-(1H-imidazol-2-yl)-1-benzofuran-6-yl]-N-[4-(methylsulfonyl)butyl]methanesulfonamide] | 1.8 nM | 18.4 nM | 1.8 nM | 1.8 nM | 12.7 nM | 14.4 nM | 8.5 nM | 2 fold | 4.9 nM | 0.6 nM | 14.4 nM | 24 fold | 4.9 nM | 17.6 nM | 9.72 fold
CS(=O)(=O)CCCCN(c1cc2oc(-c3ccc(Nc4ccccc4)cc3)c(-c3ncc[nH]3)c2cc1C1CC1)S(C)(=O)=O [Example 169, N-[2-(4-anilinophenyl)-5-cyclopropyl-3-(1H-imidazol-2-yl)-1-benzofuran-6-yl]-N-[4-(methylsulfonyl)butyl]methanesulfonamide] | 2.1 nM | 14.8 nM | 2.1 nM | 2.14 nM | 15 nM | 4.3 nM | 19.8 nM | 3 fold | 6 nM | 0.6 nM | 4.1 nM | 6 fold | 9.4 nM | 11.4 nM | 5.33 fold
